Legend:
[1] = system: adjuvant arthritis (left paw edema); assay: rat adjuvant arthritis (daily dosing) assay; assay type: in vivo, Sprague-Dawley rats; conditions: for % Change of Left Paw Edema at Day 16: daily regimen; for ED50: Rattus norvegicus, po, 384 h, read-out: estimated ED50
Protocol: The ability of the compounds of the invention to inhibit immunologic-induced (chronic) inflammation is tested in adjuvant arthritis (daily dosing) assay.
Polyarthritis is induced in groups of 6-10 Sprague-Dawley rats weighing between 180-220 g. by a subcutaneous injection into the right paw of dessicated Mycobacterium butyricum or tuberculosis (0.5 mg/0.1 ml) suspended in light mineral oil. Compounds of the invention, aspirin and indomethacin are administered orally in 0.5% methylcellulose using a daily regimen (except for weekends). Both hind paw volumes (ml.) are measured by mercury plethysmograph on day 0 or at the time of injection of the complete adjuvant. Increases in paw volume (viz. edema) are determined for the left paw on day 16. Statistical analysis of differences in paw edemas is performed by using the unpaired, Student's t-test.

carrageenan paw edema = assay: rat carrageenan edema test (hind paw); assay type: in vivo, male Sprague-Dawley rats; conditions: for % Change From Control: paw edema 3 hours after carrageenan; for ED50: Rattus norvegicus, po, 3 h, read-out: dose exhibiting a 50% inhibition of edema
Protocol: Groups of 6-8 male Sprague-Dawley rats weighing between 150-200 grams are used. Compounds of the invention, aspirin and indomethacin are administered orally in 0.5% methylcellulose. Vehicle alone is administered as a control. Sixty minutes after drug administration edema is induced by injection of 0.1 ml. of a 1% carrageenan solution in saline into the subplantar tissue of the rat's right hind paw. Two minutes later, paw volume is measured volumetrically with a plethysmograph and again 3 hours later. The mean volume of swelling for the control group is calculated and compared to the test groups. Percent change in paw edema is calculated and analysed statistically (unpaired, Student's t-test).

[2] = anti-inflammatory activity, comparison of isomers (test not specified); assay type: in vivo; conditions: E-isomer versus Z-isomer

Compound: O=C(O)/C=C1/c2ccccc2C=Cc2ccc(Cl)cc21 [Example 1G, Z-(3-Chloro-5H-dibenzo[a,d]cyclohepten-5-ylidene) acetic acid]
- % Change of Left Paw Edema at Day 16 ([1]; oral dose 25 mg/kg): -28%
- % Change From Control (carrageenan paw edema; oral dose 100-200 mg/kg): -20%

Compound: O=C(O)/C=C1\c2ccccc2C=Cc2ccc(Cl)cc21 [Example 1H]
- % Change of Left Paw Edema at Day 16 ([1]; oral dose 25 mg/kg): -59%
- anti-inflammatory activity relative to its Z-isomer [2]: several times more active
- oral doses that inhibit carrageenan paw edema (carrageenan paw edema): 20 to 200 mg/kg
- % Change From Control (carrageenan paw edema; oral dose 20 mg/kg): -33%
- % Change From Control (carrageenan paw edema; oral dose 60 mg/kg): -53%
- % Change From Control (carrageenan paw edema; oral dose 180 mg/kg): -68%

Compound: O=C(O)/C=C1/c2ccccc2C=Cc2cc(Cl)ccc21 [Example 2G]
- % Change From Control (carrageenan paw edema; oral dose 200 mg/kg): ~-38%

Compound: O=C(O)/C=C1\c2ccccc2C=Cc2cc(Cl)ccc21 [Example 2H]
- % Change of Left Paw Edema at Day 16 ([1]; oral dose 25 mg/kg): -59%
- % Change From Control (carrageenan paw edema; oral dose 200 mg/kg): -49%

Compound: COc1ccc2c(c1)C(=CC(=O)O)c1ccccc1C=C2 [Example 4F, (3-Methoxy-5H-dibenzo[a,d]cyclohepten-5-ylidene)acetic acid]
- % Change of Left Paw Edema at Day 16 ([1]; oral dose 15 mg/kg): -50%
- % Change From Control (carrageenan paw edema; oral dose >200 mg/kg): -50%

Compound: O=C(O)C(Cl)=C1c2ccccc2C=Cc2ccccc21 [Example 6E]
- % Change From Control (carrageenan paw edema; oral dose 200 mg/kg): -31%

Compound: C1=Cc2ccccc2C(=Cc2nnn[nH]2)c2ccccc21 [Example 7B, 5-(5H-Dibenzo[a,d]cyclohepten-5-ylidenemethyl) 1H-tetrazole]
- % Change From Control (carrageenan paw edema; oral dose 200 mg/kg): ~-38%

Compound: O=C(O)C=C1c2ccccc2C=C(Br)c2ccccc21 [Example 8, E- and Z-(10-bromo-5H-dibenzo[a,d]cyclohepten-5-ylidene) acetic acid]
- % Change of Left Paw Edema at Day 16 ([1]; oral dose 25-50 mg/kg): -25 to -50%
- % Change From Control (carrageenan paw edema; oral dose 200 mg/kg): -34%

Compound: O=C(O)C=C1c2ccccc2C=Cc2ccc(F)cc21 [Example 9]
- % Change of Left Paw Edema at Day 16 ([1]; oral dose 100-200 mg/kg): -40%
- oral doses that inhibit carrageenan paw edema (carrageenan paw edema): 20 to 200 mg/kg
- % Change From Control (carrageenan paw edema; oral dose 200 mg/kg): -58%

Compound: COc1ccc2c(c1)c(CC(=O)O)c(C)n2C(=O)c1ccc(Cl)cc1 [Indomethacin, reference compound]
- ED50 [1]: 0.9 mg/kg
- ED50 (carrageenan paw edema): ~5.6 mg/kg

Compound: CC(=O)Oc1ccccc1C(=O)O [aspirin, reference compound]
- ED50 [1]: ~140 mg/kg
- ED50 (carrageenan paw edema): ~250 mg/kg

— patent EP0115690A1, “Dibenzocycloheptenylidenes” (AMERICAN HOME PRODUCTS CORPORATION, priority 1983, dated 1984)
